Laboratory results as given in the OligoGym collection.
Bases are written 5' to 3'; sugars and linkages follow in the same order, as letters with counts (s phosphorothioate, o phosphodiester; PS: all linkages phosphorothioate). The collection does not say whether C is 5-methylated. l = locked nucleic acid (LNA); d = 2'-deoxy (DNA)

molecular target: Tau; assay: rat primary cortical neurons, FLIPR, 25 uM ASO

| Sequence | calcium oscillation score |
| --- | --- |
| CTCAGCTAAGACCCTCAGGT (sugars l3 d14 l3, PS) | 31.2 % of control |
| CTCAGCTCTTCCATAAGCAG (sugars l3 d14 l3, PS) | 40.3 % of control |
| CTCAGGTCAACTGGTT (sugars l3 d10 l3, PS) | 83.8 % of control |
| CTCATCAACACCTTTTAATT (sugars l4 d14 l2, PS) | 78.7 % of control |
| CTCATTGCAACTTTAAC (sugars l4 d9 l4, PS) | 84.9 % of control |
| CTCATTTACCAATTATCTTT (sugars l4 d14 l2, PS) | 64 % of control |
| CTCATTTTTCTCAAGCTC (sugars l3 d12 l3, PS) | 44.8 % of control |
| CTCCAATCTTACAGAT (sugars l4 d9 l3, PS) | 102 % of control |
| CTCCAATTTTAAACTTA (sugars l4 d9 l4, PS) | 66.5 % of control |
| CTCCAATTTTAAACTTAA (sugars l4 d10 l4, PS) | 69 % of control |
| CTCCAATTTTAAACTTAAA (sugars l4 d11 l4, PS) | 70.2 % of control |
| CTCCCATCACTAGCACT (sugars l1 d14 l2, PS) | 38.3 % of control |
| CTCCCTTTAATGCCAGGCCC (sugars l3 d14 l3, PS) | 20.1 % of control |
| CTCCTAATTTTGCACT (sugars l4 d10 l2, PS) | 44.2 % of control |
| CTCCTAATTTTGCACTC (sugars l3 d11 l3, PS) | 46.7 % of control |
| CTCCTAATTTTGCACTCA (sugars l3 d13 l2, PS) | 50.5 % of control |
| CTCCTAGAACACAACAC (sugars l3 d10 l4, PS) | 50.9 % of control |
| CTCCTATATTCTCAGT (sugars l3 d9 l4, PS) | 73.7 % of control |
| CTCCTGGTTTATGATG (sugars l3 d10 l3, PS) | 31.3 % of control |
| CTCCTGGTTTATGATGGATG (sugars l3 d14 l3, PS) | 35 % of control |
| CTCGCGGAAGGTCAGC (sugars l3 d10 l3, PS) | 0 % of control |
| CTCGCGGAAGGTCAGCTTGT (sugars l3 d14 l3, PS) | 2.91 % of control |
| CTCGTCAGCTAGCGTG (sugars l3 d10 l3, PS) | 27.1 % of control |
| CTCTAAGTAGACCCTGGCCA (sugars l3 d14 l3, PS) | 19.1 % of control |
| CTCTCAAAAATCAACGC (sugars l4 d9 l4, PS) | 66.3 % of control |
| CTCTCTGCATATATAAT (sugars l4 d9 l4, PS) | 72.2 % of control |
| CTCTGGTCAAGGCTTT (sugars l3 d10 l3, PS) | 0 % of control |
| CTCTGTCACTTACTACTC (sugars l3 d13 l2, PS) | 80.8 % of control |

| Sequence | calcium oscillation score |
| --- | --- |
| CTCTTAGCATCAGAGG (sugars l3 d10 l3, PS) | 70.4 % of control |
| CTCTTAGCATCCACTTA (sugars l3 d12 l2, PS) | 44.5 % of control |
| CTCTTATCTTTGTTTCTA (sugars l4 d12 l2, PS) | 51.1 % of control |
| CTCTTCAAATCATTCAA (sugars l4 d9 l4, PS) | 68.4 % of control |
| CTCTTCAAATCATTCAAT (sugars l4 d10 l4, PS) | 69.7 % of control |
| CTCTTCCACTACAAGC (sugars l3 d11 l2, PS) | 46.2 % of control |
| CTCTTCCACTACAAGCTC (sugars l3 d13 l2, PS) | 28.9 % of control |
| CTCTTGACAGTCACTGCTGA (sugars l3 d14 l3, PS) | 29.4 % of control |
| CTCTTTCTTAATTCAGA (sugars l4 d10 l3, PS) | 60.1 % of control |
| CTCTTTGAACACCCCATC (sugars l3 d13 l2, PS) | 41.9 % of control |
| CTGAAAGAGGGCAGCA (sugars l3 d10 l3, PS) | 36.8 % of control |
| CTGATCACAAACCCTGCTTG (sugars l3 d14 l3, PS) | 20.3 % of control |
| CTGATCATAATCCTACC (sugars l3 d11 l3, PS) | 54.9 % of control |
| CTGCCGGTGGAGGAGA (sugars l3 d10 l3, PS) | 0 % of control |
| CTGCTCAGCTAAGACCCTCA (sugars l3 d14 l3, PS) | 4.03 % of control |
| CTGGACGTTGCTAAGA (sugars l3 d10 l3, PS) | 0 % of control |
| CTGGCCACCTCCTGGT (sugars l3 d10 l3, PS) | 16.1 % of control |
| CTGGCCATCTTATGCTGACC (sugars l3 d14 l3, PS) | 12.8 % of control |
| CTGGTTTATGATGG (sugars l3 d8 l3, PS) | 32.6 % of control |
| CTGGTTTATGATGGAT (sugars l3 d10 l3, PS) | 0 % of control |
| CTGGTTTATGATGGATGTTG (sugars l3 d14 l3, PS) | 0 % of control |
| CTGGTTTGTAGACTATTTGC (sugars l3 d14 l3, PS) | 0 % of control |
| CTGTCACTATCACTTCA (sugars l2 d11 l4, PS) | 75.3 % of control |
| CTGTGCTTCAGGCCTT (sugars l3 d10 l3, PS) | 51 % of control |
| CTTAAAATTTTTCTTATTTT (sugars l4 d12 l4, PS) | 62.8 % of control |
| CTTAATTCATTTAATTCTCT (sugars l3 d13 l4, PS) | 90.1 % of control |
| CTTAATTTCACCCTC (sugars l3 d9 l3, PS) | 122 % of control |
